Legend:
[1] = Inhibition of human Flag-tagged PI4K3alpha expressed in insect cells preincubated with enzyme followed by PS:PI substrate and ATP addition measured after 60 mins by HTRF Transcreener ADP assay
[2] = species on record: Homo sapiens; experiment: Selectivity ratio of IC50 for human Flag-tagged PI4K3beta expressed in insect cells to IC50 for human Flag-tagged PI4K3alpha expressed in insect cells
[3] = system: Hepatitis C virus; experiment: Antiviral activity against HCV genotype 1b Con1 infected in human Huh5-2 cells co-expressing subgenomic HCV replicon NS3 assessed as reduction in viral replication after 2 days by luciferase reporter gene assay; format: functional, cell-based, Hepacivirus hominis; conditions: genotype 1b Con1, Huh-5-2, 48 h
[4] = Inhibition of human Flag-tagged PI4K3beta expressed in insect cells preincubated with enzyme followed by PS:PI substrate and ATP addition measured after 60 mins by HTRF Transcreener ADP assay
[5] = Inhibition of human Flag-tagged PI4K3alpha expressed in insect cells preincubated with enzyme followed by PS:PI substrate and ATP addition measured after 60 mins by ADP-Glo kinase assay
[6] = Inhibition of human Flag-tagged PI4K3beta expressed in insect cells preincubated with enzyme followed by PS:PI substrate and ATP addition measured after 60 mins by ADP-Glo kinase assay
[7] = Metabolic stability in rat liver microsomes assessed as compound remaining at 5 uM measured up to 60 mins; format: ADME; conditions: read-out: Stability
[8] = Volume of distribution at steady state in CD(Sprague-Dawley) rat at 0.3 mg/kg, iv administered as single dose measured up to 25 hrs; format: ADME, organism-based; conditions: in vivo, read-out: Vdss
[9] = target: Phosphatidylinositol 4,5-bisphosphate 3-kinase catalytic subunit alpha isoform (Homo sapiens, UniProt P42336); experiment: Inhibition of PI3Kalpha (unknown origin) preincubated prior addition of PIP2 as substrate and ATP measured after 30 mins by HTRF assay
Sequence of Phosphatidylinositol 4,5-bisphosphate 3-kinase catalytic subunit alpha isoform (P42336 whole entry, canonical isoform): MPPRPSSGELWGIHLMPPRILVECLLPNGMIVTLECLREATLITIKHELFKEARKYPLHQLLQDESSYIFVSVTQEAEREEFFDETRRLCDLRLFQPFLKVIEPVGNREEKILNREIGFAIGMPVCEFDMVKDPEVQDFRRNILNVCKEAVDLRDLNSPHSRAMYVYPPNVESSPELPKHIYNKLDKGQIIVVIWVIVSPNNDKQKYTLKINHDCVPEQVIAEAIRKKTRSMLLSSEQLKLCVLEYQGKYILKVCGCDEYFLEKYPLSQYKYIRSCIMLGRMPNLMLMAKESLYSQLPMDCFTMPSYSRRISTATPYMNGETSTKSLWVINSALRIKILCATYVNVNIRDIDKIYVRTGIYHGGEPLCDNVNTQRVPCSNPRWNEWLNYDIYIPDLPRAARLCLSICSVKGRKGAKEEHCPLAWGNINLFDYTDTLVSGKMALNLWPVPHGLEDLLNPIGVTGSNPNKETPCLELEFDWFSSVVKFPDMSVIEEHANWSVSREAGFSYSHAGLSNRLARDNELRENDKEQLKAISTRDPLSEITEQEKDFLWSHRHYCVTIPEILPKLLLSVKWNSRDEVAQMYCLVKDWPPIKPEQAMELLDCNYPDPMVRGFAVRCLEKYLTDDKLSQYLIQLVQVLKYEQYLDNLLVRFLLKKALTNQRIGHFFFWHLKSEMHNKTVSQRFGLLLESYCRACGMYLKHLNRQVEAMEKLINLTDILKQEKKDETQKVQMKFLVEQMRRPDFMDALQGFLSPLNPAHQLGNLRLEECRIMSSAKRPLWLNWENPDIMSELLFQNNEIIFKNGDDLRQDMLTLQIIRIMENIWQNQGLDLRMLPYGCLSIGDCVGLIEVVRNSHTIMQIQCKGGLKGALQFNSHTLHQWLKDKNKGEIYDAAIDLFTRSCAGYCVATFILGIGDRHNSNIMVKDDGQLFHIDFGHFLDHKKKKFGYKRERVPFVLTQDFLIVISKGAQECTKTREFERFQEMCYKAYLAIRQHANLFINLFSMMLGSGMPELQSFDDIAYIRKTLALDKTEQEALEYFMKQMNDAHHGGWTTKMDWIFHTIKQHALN

[10] = AUC (0 to infinity) in CD(Sprague-Dawley) rat at 1 mg/kg, po administered as single dose measured up to 25 hrs; format: ADME, organism-based; design: dose 1 mg/kg, route oral, time infinity; conditions: in vivo
[11] = system: Hepatitis C virus; experiment: Antiviral activity against HCV genotype […] Con1 infected in human Huh5-2 cells co-expressing subgenomic HCV replicon NS3 assessed as reduction in viral replication after 2 days by luciferase reporter gene assay; format: functional, cell-based, Hepacivirus hominis, genotype 1b Con1; conditions: Huh-5-2, 48 h
[12] = Metabolic stability in human liver microsomes assessed as compound remaining at 5 uM measured up to 60 mins; format: ADME; conditions: read-out: Stability
[13] = MRT in CD(Sprague-Dawley) rat at 1 mg/kg, po administered as single dose; format: ADME, organism-based; conditions: in vivo
[14] = target: Phosphatidylinositol 4,5-bisphosphate 3-kinase catalytic subunit beta isoform (Homo sapiens, UniProt P42338); experiment: Inhibition of PI3Kbeta (unknown origin) preincubated prior addition of PIP2 as substrate and ATP measured after 30 mins by HTRF assay
Sequence of Phosphatidylinositol 4,5-bisphosphate 3-kinase catalytic subunit beta isoform (P42338 whole entry, canonical isoform): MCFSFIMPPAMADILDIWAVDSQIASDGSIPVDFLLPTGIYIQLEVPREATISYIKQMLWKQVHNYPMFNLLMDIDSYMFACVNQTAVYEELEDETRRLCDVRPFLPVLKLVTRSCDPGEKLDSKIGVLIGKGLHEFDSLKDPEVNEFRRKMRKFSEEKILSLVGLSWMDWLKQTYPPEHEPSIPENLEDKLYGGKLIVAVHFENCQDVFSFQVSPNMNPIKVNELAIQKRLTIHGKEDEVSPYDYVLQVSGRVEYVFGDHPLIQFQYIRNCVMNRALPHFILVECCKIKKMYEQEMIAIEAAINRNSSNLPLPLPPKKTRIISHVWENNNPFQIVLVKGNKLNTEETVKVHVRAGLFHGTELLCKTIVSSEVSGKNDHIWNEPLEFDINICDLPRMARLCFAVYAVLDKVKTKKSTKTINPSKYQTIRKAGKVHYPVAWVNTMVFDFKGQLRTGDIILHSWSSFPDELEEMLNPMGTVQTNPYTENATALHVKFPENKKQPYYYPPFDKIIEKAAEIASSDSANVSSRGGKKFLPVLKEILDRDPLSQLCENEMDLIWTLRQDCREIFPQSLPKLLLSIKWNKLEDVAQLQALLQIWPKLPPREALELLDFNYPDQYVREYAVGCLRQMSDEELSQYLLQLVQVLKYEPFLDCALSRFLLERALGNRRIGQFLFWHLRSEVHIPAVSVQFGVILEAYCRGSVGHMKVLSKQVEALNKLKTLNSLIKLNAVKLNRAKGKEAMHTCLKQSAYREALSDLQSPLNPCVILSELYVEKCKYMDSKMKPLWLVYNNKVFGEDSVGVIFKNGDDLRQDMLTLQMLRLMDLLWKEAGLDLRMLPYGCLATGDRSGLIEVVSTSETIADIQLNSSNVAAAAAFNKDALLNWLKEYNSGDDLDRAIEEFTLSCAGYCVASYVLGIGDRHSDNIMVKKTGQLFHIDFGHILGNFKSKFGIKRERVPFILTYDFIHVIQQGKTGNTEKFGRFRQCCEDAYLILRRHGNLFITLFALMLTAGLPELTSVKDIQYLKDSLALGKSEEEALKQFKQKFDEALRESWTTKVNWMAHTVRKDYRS

[15] = Oral bioavailability in CD(Sprague-Dawley) rat at 1 mg/kg administered as single dose measured up to 25 hrs; format: ADME, organism-based; conditions: in vivo
[16] = Terminal half life in CD(Sprague-Dawley) rat at 0.3 mg/kg, iv administered as single dose; format: ADME, organism-based; conditions: in vivo, read-out: beta t1/2 (converted)
[17] = Total clearance in CD(Sprague-Dawley) rat at 0.3 mg/kg, iv administered as single dose measured up to 25 hrs; format: ADME, organism-based; conditions: in vivo

EC50 [3]	SMILES	IC50 [1]	Ratio IC50 [2]	IC50 [4]	also measured
88 nM	COCc1ncc(-c2ccc3ncn(CCS(C)(=O)=O)c(=O)c3c2)cc1NS(=O)(=O)c1ccc(F)cc1F	1.6 nM	100	160 nM	–
10 nM	CCCn1cnc2ccc(-c3cnc(COC)c(NS(=O)(=O)c4ccc(F)cc4F)c3)cc2c1=O	1.9 nM	120	230 nM	–
880 nM	COCc1ncc(-c2ccc3ncn(-c4ccccc4)c3c2)cc1NS(=O)(=O)c1ccc(F)cc1F	13 nM	32	410 nM	–
41 nM	COCc1ncc(-c2ccc3ncc(=O)n(-c4ccccc4)c3c2)cc1NS(=O)(=O)c1ccc(F)cc1F	2.2 nM	640	1400 nM	–
780 nM	COCc1ncc(-c2ccn3nnc(-c4ccccc4)c3c2)cc1NS(=O)(=O)c1ccc(F)cc1F	93 nM	> 110	> 10000 nM	–
68 nM	COCc1ncc(-c2ccc3ncc(-c4ccccc4)c(=O)n3c2)cc1NS(=O)(=O)c1ccc(F)cc1F	8 nM	1030	8200 nM	–
> 30000 nM	COc1ncc(-c2ccc3ncn(-c4ccccc4)c(=O)c3c2)cc1CS(=O)(=O)c1ccc(F)cc1F	–	> 30	–	IC50 [5]: > 1000 nM; IC50 [6]: > 30000 nM
99 nM	COc1ncc(-c2ccc3ncn(-c4ccccc4)c(=O)c3c2)cc1S(=O)(=O)Nc1ccc(F)cc1F	–	> 160	–	IC50 [5]: 190 nM; IC50 [6]: > 30000 nM
1000 nM	COCc1ncc(-c2ccc3nnn(-c4ccccc4)c3c2)cc1NS(=O)(=O)c1ccc(F)cc1F	50 nM	74	3700 nM	–
29 nM	COCc1ncc(-c2ccc3nn(C)c(C4CCOCC4)c3c2)cc1NS(=O)(=O)c1ccc(F)cc1F	2 nM	20	39 nM	–

The next lines start with the compound.

SMILES	EC50 [3]	IC50 [1]	Ratio IC50 [2]	IC50 [4]	also measured
COCCn1cnc2ccc(-c3cnc(COC)c(NS(=O)(=O)c4ccc(F)cc4F)c3)cc2c1=O	13 nM	1 nM	130	130 nM	–
COCc1ncc(-c2ccc3ncn(-c4ccccc4)c(=O)c3c2)cc1NS(=O)(=O)c1ccc(F)cc1F	20 nM	–	1200	–	IC50 [5]: 4.1 nM; IC50 [6]: 4900 nM
COCc1ncc(-c2ccc3ncn(CCO)c(=O)c3c2)cc1NS(=O)(=O)c1ccc(F)cc1F	81 nM	2.5 nM	260	660 nM	–
COCc1ncc(-c2c3ccc(C4CCOCC4)cc3nn2C)cc1NS(=O)(=O)c1ccc(F)cc1F	31 nM	5.7 nM	53	300 nM	–
COCc1ncc(-c2c3ccc(C4=CCOCC4)cc3nn2C)cc1NS(=O)(=O)c1ccc(F)cc1F	78 nM	16 nM	58	920 nM	–
COCc1ncc(-c2c3ccc(-c4ccccc4)cc3nn2C)cc1NS(=O)(=O)c1ccc(F)cc1F	700 nM	260 nM	96	18000 nM	–
COC(C)c1ncc(-c2ccc3ncn(-c4ccccc4)c(=O)c3c2)cc1NS(=O)(=O)c1ccc(F)cc1F (racemic)	400 nM	–	> 3000	–	IC50 [5]: 100 nM; IC50 [6]: > 30000 nM
COCc1ncc(-c2ccc3nn(C)c(-c4ccccc4)c3c2)cc1NS(=O)(=O)c1ccc(F)cc1F	610 nM	9.1 nM	22	200 nM	–
COCc1ncc(-c2ccc3nn(C)c(C4=CCOCC4)c3c2)cc1NS(=O)(=O)c1ccc(F)cc1F	50 nM	3.1 nM	32	98 nM	–
COc1ncc(-c2ccc3ncn(-c4ccccc4)c(=O)c3c2)cc1NS(=O)(=O)c1ccc(F)cc1F	–	–	56	–	IC50 [5]: 14 nM; IC50 [6]: 780 nM
COCCn1cnc2ccc(-c3cnc(COC4CC4)c(NS(=O)(=O)c4ccc(F)cc4F)c3)cc2c1=O	6.8 nM	0.31 nM	710	220 nM	remaining at 1 h, 5 µM [7]: 91%; Vd [8]: 0.2 L/kg; IC50 [9]: 240 nM; AUC(0-inf) [10]: 42 µM·h; EC50 [11]: 10 nM; remaining at 1 h, 5 µM [12]: 104%; MRT [13]: 5.5 h; IC50 [14]: 1400 nM; bioavailability [15]: 91%; half-life [16]: 3.3 h; clearance [17]: 0.667 mL/min/kg

Source: ChEMBL document CHEMBL3853358, “Concise SAR Exploration Based on the "Head-to-Tail" Approach: Discovery of PI4KIIIα Inhibitors Bearing Diverse Scaffolds” (ACS Med Chem Lett, 2016)
